Measurements: patent US20230290452A1, “Electronic Health Record (EHR)-Based Classifier for Acute Respiratory Distress Syndrome (ARDS) Subtyping” (Endpoint Health Inc., priority 2020, published 2023)

Legend:
Type in all cases: in vivo, human
ARDS patients [1] = assay: eICU (v1) dataset, statin intervention by Model C.4 subphenotype; parameters: Alive: unit not given here; settings: for Alive / Dead / Mortality: no consideration to number doses and minimum dose size
Excerpt: The dataset from the eICU (v1) dataset was used for analysis. The intervention of interest was statins.
The individual statins were then examined with no consideration to number of doses and minimum dose size. Using this methodology, there were several differential responses identified (bolded and underlined cells as shown below in Table 81).

ARDS patients [2] = assay: eICU data filtered for patients without prior indication for statin use, statin intervention by subphenotype
Excerpt: This included patients with history of angina, congestive heart failure, coronary artery bypass grafting, multiple coronary artery bypass, hypertension requiring treatment, previous acute myocardial infarction, peripheral vascular disease, previous coronary intervention procedure, stroke, and/or transient ischemic attack.

ARDS patients [3] = assay: eICU (v1) dataset, statin intervention by Model C.4 subphenotype; parameters: Alive: unit not given here
[4] = admitted with drug or initiated during ICU stay, All Patients
[5] = admitted with drug or initiated during ICU stay, Subphenotype A
[6] = admitted with drug or initiated during ICU stay, Subphenotype B
[7] = initiated during ICU stay, All Patients
[8] = initiated during ICU stay, Subphenotype A
[9] = initiated during ICU stay, Subphenotype B
[10] = on drug at time of ICU admit, All Patients
[11] = on drug at time of ICU admit, Subphenotype A
[12] = on drug at time of ICU admit, Subphenotype B

SMILES: CC[C@H](C)C(=O)O[C@H]1C[C@@H](C)C=C2C=C[C@H](C)[C@H](CC[C@@H]3C[C@@H](O)CC(=O)O3)[C@H]21 [Lovastatin]
- Alive (ARDS patients [1]; All Patients): 12
- Dead (ARDS patients [1]; All Patients): 1
- Mortality (ARDS patients [1]; All Patients): 8%
- Alive (ARDS patients [1]; Subphenotype A): 10
- Dead (ARDS patients [1]; Subphenotype A): 0
- Mortality (ARDS patients [1]; Subphenotype A): 0%
- Alive (ARDS patients [1]; Subphenotype B): 2
- Dead (ARDS patients [1]; Subphenotype B): 1
- Mortality (ARDS patients [1]; Subphenotype B): 33%

SMILES: CC[C@H](C)C(=O)O[C@H]1C[C@H](O)C=C2C=C[C@H](C)[C@H](CC[C@@H](O)C[C@@H](O)CC(=O)O)[C@H]21 [Pravastatin]
- Alive (ARDS patients [1]; All Patients): 29
- Dead (ARDS patients [1]; All Patients): 6
- Mortality (ARDS patients [1]; All Patients): 17%
- Alive (ARDS patients [1]; Subphenotype A): 20
- Dead (ARDS patients [1]; Subphenotype A): 4
- Mortality (ARDS patients [1]; Subphenotype A): 17%
- Alive (ARDS patients [1]; Subphenotype B): 9
- Dead (ARDS patients [1]; Subphenotype B): 2
- Mortality (ARDS patients [1]; Subphenotype B): 18%

SMILES: CC(C)c1nc(N(C)S(C)(=O)=O)nc(-c2ccc(F)cc2)c1/C=C/[C@@H](O)C[C@@H](O)CC(=O)O [Rosuvastatin]
- Alive (ARDS patients [1]; All Patients): 32
- Dead (ARDS patients [1]; All Patients): 4
- Mortality (ARDS patients [1]; All Patients): 11%
- Alive (ARDS patients [1]; Subphenotype A): 23
- Dead (ARDS patients [1]; Subphenotype A): 2
- Mortality (ARDS patients [1]; Subphenotype A): 8%
- Alive (ARDS patients [1]; Subphenotype B): 9
- Dead (ARDS patients [1]; Subphenotype B): 2
- Mortality (ARDS patients [1]; Subphenotype B): 18%

SMILES: CC(C)c1c(C(=O)Nc2ccccc2)c(-c2ccccc2)c(-c2ccc(F)cc2)n1CC[C@@H](O)C[C@@H](O)CC(=O)O [atorvastatin]
- Alive (ARDS patients [2]; [4]): 51
- Dead (ARDS patients [2]; [4]): 12
- Mortality Rate (ARDS patients [2]; [4]): 19.05
- Alive (ARDS patients [2]; [5]): 40
- Dead (ARDS patients [2]; [5]): 6
- Mortality Rate (ARDS patients [2]; [5]): 13.04
- Alive (ARDS patients [2]; [6]): 11
- Dead (ARDS patients [2]; [6]): 6
- Mortality Rate (ARDS patients [2]; [6]): 35.29
- Alive (ARDS patients [2]; [7]): 42
- Dead (ARDS patients [2]; [7]): 9
- Mortality Rate (ARDS patients [2]; [7]): 17.65
- Alive (ARDS patients [2]; [8]): 34
- Dead (ARDS patients [2]; [8]): 5
- Mortality Rate (ARDS patients [2]; [8]): 12.82
- Alive (ARDS patients [2]; [9]): 8
- Dead (ARDS patients [2]; [9]): 4
- Mortality Rate (ARDS patients [2]; [9]): 33.33
- Alive (ARDS patients [2]; [10]): 9
- Dead (ARDS patients [2]; [10]): 3
- Mortality Rate (ARDS patients [2]; [10]): 25
- Alive (ARDS patients [2]; [11]): 6
- Dead (ARDS patients [2]; [11]): 1
- Mortality Rate (ARDS patients [2]; [11]): 14.29
- Alive (ARDS patients [2]; [12]): 3
- Dead (ARDS patients [2]; [12]): 2
- Mortality Rate (ARDS patients [2]; [12]): 40
- Alive (ARDS patients [3]; [4]): 290
- Dead (ARDS patients [3]; [4]): 54
- Alive (ARDS patients [3]; [5]): 209
- Dead (ARDS patients [3]; [5]): 26
- Mortality Rate (ARDS patients [3]; [5]): 11.06
- Alive (ARDS patients [3]; [6]): 81
- Dead (ARDS patients [3]; [6]): 28
- Mortality Rate (ARDS patients [3]; [6]): 25.69
- Alive (ARDS patients [3]; [7]): 210
- Dead (ARDS patients [3]; [7]): 40
- Mortality Rate (ARDS patients [3]; [7]): 16
- Alive (ARDS patients [3]; [8]): 149
- Dead (ARDS patients [3]; [8]): 19
- Mortality Rate (ARDS patients [3]; [8]): 11.31
- Alive (ARDS patients [3]; [9]): 61
- Dead (ARDS patients [3]; [9]): 21
- Mortality Rate (ARDS patients [3]; [9]): 25.61
- Alive (ARDS patients [3]; [10]): 80
- Dead (ARDS patients [3]; [10]): 14
- Mortality Rate (ARDS patients [3]; [10]): 14.89
- Alive (ARDS patients [3]; [11]): 60
- Dead (ARDS patients [3]; [11]): 7
- Mortality Rate (ARDS patients [3]; [11]): 10.45
- Alive (ARDS patients [3]; [12]): 20
- Dead (ARDS patients [3]; [12]): 7
- Mortality Rate (ARDS patients [3]; [12]): 25.93
- Mortality Rate (ARDS patients [1]; [4]): 15.70
- Alive (ARDS patients [1]; All Patients): 289
- Dead (ARDS patients [1]; All Patients): 54
- Mortality (ARDS patients [1]; All Patients): 16%
- Alive (ARDS patients [1]; Subphenotype A): 209
- Dead (ARDS patients [1]; Subphenotype A): 26
- Mortality (ARDS patients [1]; Subphenotype A): 11%
- Alive (ARDS patients [1]; Subphenotype B): 80
- Dead (ARDS patients [1]; Subphenotype B): 28
- Mortality (ARDS patients [1]; Subphenotype B): 26%
